Assay results from patent US20050209157A1, “Short bioactive peptides and methods for their use” (priority 2001, published 2005).
Converted amounts (≈) assume the structure as drawn. Where two headings read alike, the source gives them in different places. No end group written: not given here.

Legend:
BMKC = assay: Anti-cancer assay, MTT, LD50; format: cell-based; conditions: BMKC cloned melanoma line, 24 hours with peptide
Text: (§1) Numbers are LD50 values (μg/mL).

H1299 = assay: Anti-cancer assay, MTT, LD50; format: cell-based; conditions: 24 hours with peptide, lung large cell carcinoma
Text: as §1

HeLaS3 = assay: Anti-cancer assay, MTT, LD50; format: cell-based; conditions: 24 hours with peptide, cervical carcinoma
Text: as §1

MCF7 = assay: Anti-cancer assay, MTT, LD50; format: cell-based; conditions: MCF7 breast adenocarcinoma line, MTT, 24 hours with peptide
Text: as §1

PC3 = assay: Anti-cancer assay, MTT, LD50; format: cell-based; conditions: 24 hours with peptide, prostate adenocarcinoma
Text: as §1

SW480 = assay: Anti-cancer assay, MTT, LD50; format: cell-based; conditions: SW480 colon adenocarcinoma line, 24 hours with peptide
Text: as §1

[1] = tested on: human red blood cells (RBC); assay: in vitro; format: cell-based; conditions: hemolytic assay, concentration at 50% hemolysis, 1 hour at 37° C.
WI38 = conditions: for LD50 WI38: WI38 normal lung fibroblast line
in vitro [2] = conditions: human, WI38 normal lung fibroblast cells
[3] = tested on: Pseudomonas aeruginosa ATCC 9027; assay: Antimicrobial assay I, MIC by OD measurement; format: cell-based
Text: The data for the following antimicrobial assay of the peptides have been obtained by making OD measurements in in vitro cell culture experiments with and without added peptide. The protocol used is as follows.
Cell lines included Staphylococcus aureus ATCC 6538 or 25923, Pseudomonas aeruginosa ATCC 9027 or 27853. Medium used were Antibiotic Medium 3 (Difco), Antibiotic Medium 2 (Difco), and 0.85% saline. Controls used were physiological saline, and gentamycin at 50, 25, 10, 5, 1, and 0.1 ppm.
Absorbance was read at 620 nm after shaking to resuspend cells.
Staph6538 is Staphylococcus aureus ATCC accession number 6538; paerug9027 is Pseudomonas aeruginosa ATCC accession number 9027, yeast is Saccharomyces cerevisiae.

in vitro [4] = format: cell-based, human; conditions: human, human red blood cells
[5] = tested on: Escherichia coli ATCC 25922; assay: Antimicrobial assay I, modified protocol (tryptic soy broth), MBC; conditions: minimum bactericidal concentration, Table 4
Procedure: The preparation of all media, stock solutions, and dilutions took place in a laminar flow hood to prevent contamination. Bacterial cells were freshly grown on antibiotic medium 2 agar slants (pH 7.0 at 25° C.). Bacteria were suspended and diluted in antibiotic medium 3 to about 10^4 cfu/ml and used as the inoculum. Sample solutions (100 μl/well) were added to plates according to the plate layout. Inoculum (100 μl/well) was added to achieve a final concentration of 5×10^3 cfu/ml. Negative controls received 100 μl saline and 100 μl growth medium. Positive controls received 100 μl saline and 100 μl inoculum. Bacterial plates were incubated at 37° C. for 24 hours.
However, the data for Table 4 were obtained with a modified protocol wherein the medium was tryptic soy broth, inocolum strength was approximately 10^4 CFU per ml, and values determined were minimum bactericidal concentrations (MBC) or minimum fungicidal concentrations (MFC).
MBC or MFC values are in μg/mL. E. coli is Escherichia coli ATCC accession number 25922; P. aerug is Pseudomonas aeruginosa ATCC accession number 27853, S. aur. is Stapholococcus aureus ATCC accession number 25923; Candida is Candida albicans ATCC accession number 10231.

[6] = tested on: Pseudomonas aeruginosa ATCC 27853; assay: as above; conditions: minimum bactericidal concentration, Table 4
[7] = tested on: Stapholococcus aureus ATCC 25923; assay: as above; conditions: minimum bactericidal concentration, Table 4
[8] = tested on: Candida albicans ATCC 10231; assay: Antimicrobial assay I, modified protocol (tryptic soy broth), MFC; conditions: minimum fungicidal concentration, Table 4
[9] = tested on: human leukocyte (WBC) cells; assay: Stimulation and proliferation of leukocytes, Alamar Blue; format: cell-based; conditions: compared to untreated positive control cells; Alamar Blue
Procedure: In vitro viability of human leukocyte cells in the presence of different peptides at different concentrations was determined by an Alamar Blue protocol. Alamar Blue (Promega, Madison, Wis.) is an indicator dye, formulated to measure quantitatively the proliferation and cytotoxicity of the cells. The dye consists of an oxidation-reduction (redox) indicator that yields a calorimetric change and a fluorescent signal in response to cellular metabolic activity.
Assay protocol: Blood from a human was drawn and centrifuged at 1500 rpm for 15 minutes at room temperature. The buffy coat cells at the plasma-red blood cell interface were aspirated. Buffy coat cells (mainly lymphocyte cells) were then transferred into 15 ml centrifuge tubes containing 5 ml of RPMI-1640 medium+10% Fetal Bovine Serum (Gibco, Grand Island, N.Y.). Additional medium was added to the tubes to bring the volume up to 10 ml. The buffy coat suspension was then carefully layered on 5 ml of Histopaque (Sigma Chemical Co., St. Louis, Mo.) and centrifuged at 1500 rpm for 30 minutes at room temperature. The interface which is mostly PBMCs (peripheral mononuclear cells) was aspirated and transferred to a 15 ml conical centrifuge tube and, resuspended in 2 ml cold RPMI-1640 and brought up to 15 ml with cold RPMI-1640 medium. Cells were centrifuged at 1500 rpm for 10 minutes. The supernatant was then aspirated and discarded. The cell pellet was re-suspended in 1 ml of cold RPMI 1640 and brought up to 15 ml with RPMI medium. This step was repeated twice, except that in the last step, the cells were resuspended with 1 ml of cold RPMI-1640 medium and cell counts were performed with a hemocytometer according to the Sigma cell culture catalogue.
Pokewood mitogen was used as a control along with positive and negative controls. Negative control cells were killed with 70% methanol. Positive (+) control cells were incubated in RPMI medium (untreated). […] of AlamarBlue was added to the cells, and readings were taken after 24 hours, 48 hours, 72 hours, and 96 hours using a fluorimeter (excitation 544/transmission 590 nm).
Calculations were performed using the following formula. The peptide treated sample and positive control were adjusted for negative control. [formula]
Using the protocol described immediately above, about 100-150 peptides were screened for their stimulatory and/or inhibitory actions upon the growth of human leukocyte (“WBC”) cells as compared to the growth of untreated positive control cells.
The Alamar Blue stain used in the protocol permeates both cell and nuclear membranes, and is metabolized in the mitochondria to cause the change in color. The resulting fluorometric response is therefore a result of total mitochondrial activity caused by cell stimulation and/or mitosis (cell proliferation).

E. coli UB1005 = format: cell-based, Escherichia coli; conditions: mean of three; 16 to 20 hours at 35° C.; in µg/mL
S. typhimurium 14028S = format: cell-based, Salmonella typhimurium; conditions: mean of three; 16 to 20 hours at 35° C.; in µg/mL
P. aeruginosa H374 = format: cell-based, Pseudomonas aeruginosa; conditions: mean of three; 16 to 20 hours at 35° C.
[10] = MTT, 24 hours with peptide, normal fibroblast line
[11] = LD50 WI38, WI38 normal lung fibroblast line, MTT, 24 hours with peptide
[12] = pH 7, Table 26, valine substitution, read-out: Hemolysis RBC LD50
[13] = WI-38 LD50, Table 26, valine substitution
[14] = pH 7, hemolytic assay, concentration at 50% hemolysis, 1 hour at 37° C., read-out: LD50

Row | Compound | LD50 BMKC (BMKC) | H1299 LD50 (H1299) | HeLaS3 LD50 (HeLaS3) | LD50 MCF7 (MCF7) | PC3 LD50 (PC3) | LD50 SW480 (SW480) | LD50 [1] | WI38 LD50 (WI38; [10]) | MBC E. coli A.25922 [5] | MBC P. aerug A.27853 [6] | MBC S. aur A.25923 [7] | MFC Candida A.10231 [8] [µg/mL] | other results
1 | KFKKLAKKW-NH2 [P175] | > (> indicates greater than 1000) | > (> indicates greater than 1000) | 510 µg/mL | > (> indicates greater than 1000) | > (> indicates greater than 1000) | 70 µg/mL | > (> indicates greater than 1000) | > (> indicates greater than 1000) |  |  |  |  | LD50 WI38 (WI38; MTT, 24 hours with peptide): > (> indicates greater than 1000)
2 | KLAKKLAKLAKLAKAL-OH [P160, reference compound] | 220 µg/mL | 470 µg/mL | 550 µg/mL | 320 µg/mL | 450 µg/mL | 370 µg/mL | > (> indicates greater than 1000) | 700 µg/mL |  |  |  |  | CC50 at 24 h (in vitro [2]; [11]): 700 µg/mL
3 | KKVVFKVKFK-NH2 [P302, reference compound] | 700 µg/mL | 720 µg/mL | > (> indicates greater than 1000) | 340 µg/mL | > (> indicates greater than 1000) | > (> indicates greater than 1000) | > (> indicates greater than 1000) | 800 µg/mL |  |  |  |  | CC50 at 24 h (in vitro [2]; [11]): 800 µg/mL
4 | CC(C)C[C@H](NC(=O)[C@H](C)NC(=O)[C@H](CC(C)C)NC(=O)[C@H](CCCCN)NC(=O)[C@H](C)NC(=O)[C@H](CC(C)C)NC(=O)[C@H](CCCCN)NC(=O)[C@H](CCCCN)NC(=O)[C@H](C)NC(=O)[C@H](CC(C)C)NC(=O)[C@H](CCCCN)NC(=O)[C@H](C)NC(=O)[C@H](CC(C)C)NC(=O)[C@H](CCCCN)NC(=O)[C@H](CCCCN)NC(=O)[C@H](C)NC(=O)[C@@H](N)Cc1ccccc1)C(N)=O [compound 35] |  |  |  |  |  |  |  |  | 8 µg/mL (≈ 4.31 µM) | 8 µg/mL (≈ 4.31 µM) | 10 µg/mL (≈ 5.39 µM) | >40 | P. aerug (MIC) [3]: 200 µg/mL; HC50 at 1 h (in vitro [4]; [12]): 150 µg/mL; HC50 at 1 h (in vitro [4]; pH 7, Table 27, read-out: Hemolysis (LD50)): 100 µg/mL; WI38 LD50 (WI38; Table 27): 25 µg/mL; CC50 at 24 h (in vitro [2]; [13]): 25 µg/mL (≈ 13.5 µM)
5 | VALALKALKKLAKKLKKLAKKAL-NH2 [P509] |  |  |  |  |  |  |  |  |  |  |  |  | stimulatory and/or inhibitory action on growth of human leukocyte (WBC) cells [9]: stimulatory (and/or proliferative) at all concentrations through 500 μg/ml; HC50 at 1 h (in vitro [4]; [14]): 40 µg/mL
6 | FKLAFKLAKKAFL-NH2 [P122] | 700 µg/mL | 830 µg/mL | 780 µg/mL | 360 µg/mL | 800 µg/mL | 570 µg/mL | > (> indicates greater than 1000) | 720 µg/mL |  |  |  |  | CC50 at 24 h (in vitro [2]; [11]): 720 µg/mL
7 | FAKKLAKKLKKLAKKLAK-OH [Shiva 10(1-18_AC] |  |  |  |  |  |  | > (> indicates greater than 1000) |  |  |  |  |  | 
8 | FALALKALKKLAKKLKKLAKKAL-NH2 [compound 25] |  |  |  |  |  |  |  |  | 40 µg/mL | 30 µg/mL | 40 µg/mL | >50 | HC50 at 1 h (in vitro [4]; [12]): 16 µg/mL; CC50 at 24 h (in vitro [2]; [13]): 24 µg/mL
9 | FALALKALKKLLKKLKKLAKKAL-NH2 [compound 24] |  |  |  |  |  |  |  |  | >80 µg/mL | 30 µg/mL | >40 µg/mL | >50 | HC50 at 1 h (in vitro [4]; [12]): 10 µg/mL; CC50 at 24 h (in vitro [2]; [13]): 55 µg/mL
10 | VALALKALKKALKKLKKALKKAL-NH2 [compound 30] |  |  |  |  |  |  |  |  | 10 µg/mL | 15 µg/mL | 40 µg/mL | >50 | HC50 at 1 h (in vitro [4]; [12]): 150 µg/mL; CC50 at 24 h (in vitro [2]; [13]): 93 µg/mL
11 | FAKKLAKKLKKLAKLALAL-OH [P29] | 300 µg/mL |  |  | 140 µg/mL |  | 210 µg/mL |  |  |  |  |  |  | E. coli UB1005 MIC (E. coli UB1005): 8; S. typhimurium 14028S MIC (S. typhimurium 14028S): 8; P. aeruginosa H374 MIC (P. aeruginosa H374): 16 µg/mL; HC50 at 1 h (in vitro [4]; [14]): 250 µg/mL; CC50 at 24 h (in vitro [2]; [11]): 520 µg/mL
12 | FAKLLAKLAKKAA-NH2 [P93] |  | 320 µg/mL | > (> indicates greater than 1000) |  | 690 µg/mL |  | > (> indicates greater than 1000) |  |  |  |  |  | CC50 at 24 h (in vitro [2]; WI38 LD50, MTT, 24 hours with peptide, normal fibroblast line): 530 µg/mL
13 | KFKKLAKKF-NH2 [P174] | > (> indicates greater than 1000) | > (> indicates greater than 1000) | > (> indicates greater than 1000) | > (> indicates greater than 1000) | > (> indicates greater than 1000) | > (> indicates greater than 1000) | > (> indicates greater than 1000) | > (> indicates greater than 1000) |  |  |  |  | LD50 WI38 (WI38; MTT, 24 hours with peptide): > (> indicates greater than 1000)
14 | CC(C)C[C@H](NC(=O)[C@H](CCCCN)NC(=O)[C@H](C)NC(=O)[C@H](CC(C)C)NC(=O)[C@H](CC(C)C)NC(=O)[C@H](CCCCN)NC(=O)[C@H](C)NC(=O)[C@@H](N)Cc1ccccc1)C(=O)N[C@@H](C)C(=O)N[C@@H](CCCCN)C(=O)N[C@@H](CCCCN)C(=O)N[C@@H](C)C(=O)N[C@@H](C)C(N)=O [compound 93] |  |  |  |  |  |  |  |  | >50 µg/mL | >50 µg/mL | >50 µg/mL | >50 | 
15 | FAKLLAKFLKKAL-NH2 [compound 113] |  |  |  |  |  |  |  |  | INACT | INACT | INACT | 40 | 
